# Test results as given in paper PMC8044178, “Structural basis of norepinephrine recognition and transport inhibition in neurotransmitter transporters” (Nature Communications, 2021).
# Like-named read-outs stand apart in the source and are kept apart here.
# Tests used:
# [1] = molecular target: T1, dDATfc (Drosophila melanogaster dopamine transporter functional construct) (Drosophila melanogaster, UniProt Q7K4Y6, DEL164-191/F471L/L415A/V74A); assay: cell-based
# T1 construct: expressed in transfected cells; host or cells: HEK293S GnTI- cells, transient transfection with pEG-BacMam plasmid
# Description: (§1) Additional mutations in the subsite B or subsite C were incorporated into this gene used for carrying out the uptake assays.
# (§2) Cells were transiently transfected with pEG-BacMam plasmid harboring the dDAT cGFP gene and incubated for 35–40 hrs at 37 °C with 5% CO2 and 80% humidity. […] The transport activity was arrested with 0.5 ml of pre-chilled assay buffer containing 100 μM desipramine (Sigma Aldrich) added to each reaction. The cells were then washed twice with the same buffer before solubilizing them in 0.1 ml of 20 mM DDM for one hour at room temperature. […] Following this, 0.1 ml of the supernatant was added to 0.5 ml of scintillation fluid (Ultima Gold, Perkin Elmer) and the radioactivity was estimated on MicroBeta scintillation counter (Perkin Elmer). […] The background-subtracted, dose–response plots were analyzed using GraphPad Prism v.5.0.1 and Ki values were determined from Cheng–Prusoff’s equation using the IC50 values obtained from the experiments.
# [2] = molecular target: hNET; settings: read-out: Uptake Inhibition Ki, hNET; cited from earlier work
# [3] = molecular target: T2, dDATfc A117S/A428S (Drosophila melanogaster, UniProt Q7K4Y6, A117S/A428S/DEL164-191/F471L/L415A/V74A); assay: cell-based; assay type: cell-based
# T2 construct: expressed in transfected cells; host or cells: HEK293S GnTI- cells, transient transfection with pEG-BacMam plasmid
# Description: (§3) Earlier studies have posited that non-conserved residues in the primary binding site are responsible for selective inhibition of biogenic amine uptake[57],[58]. […] Effects of these mutations were analyzed through uptake inhibition using the three SNRIs employed in this study (Fig. 6a–c). […] Supplementary Table 2)[56],[59].
# as §1, §2
# [4] = molecular target: T3, dDATfc A428S (Drosophila melanogaster, UniProt Q7K4Y6, A428S/DEL164-191/F471L/L415A/V74A); assay: cell-based
# T3 construct: expressed in transfected cells; host or cells: HEK293S GnTI- cells, transient transfection with pEG-BacMam plasmid
# Description: as §3, §1, §2
# [5] = molecular target: T4, dDATfc A117S (Drosophila melanogaster, UniProt Q7K4Y6, A117S/DEL164-191/F471L/L415A/V74A); assay: cell-based
# T4 construct: expressed in transfected cells; host or cells: HEK293S GnTI- cells, transient transfection with pEG-BacMam plasmid
# Description: as §3, §1, §2
# [6] = molecular target: hDAT; settings: read-out: Uptake Inhibition Ki, hDAT; ref 4 (Supplementary: Vaishnavi et al., 2004); cited from earlier work
# [7] = molecular target: hNET; settings: read-out: Binding Inhibition (Ki), hNET; cited from earlier work
# [8] = molecular target: hDAT; design: method as in earlier work; settings: vs. RTI-55; ref 4 (Supplementary: Vaishnavi et al., 2004); read-out: Binding Inhibition (Ki), hDAT; cited from earlier work
# [9] = molecular target: T5, dDATmfc (Drosophila melanogaster, UniProt Q7K4Y6, DEL162-202/F471L/L415A/V74A); assay: biochemical; settings: read-out: Percent binding
# T5 construct: GFP-8x-His (C); made in house; host or cells: HEK293S GnTI- cells, BacMam baculovirus transduction
# Description: (§4) Binding assays were performed with 20 nM of purified dDAT protein by scintillation proximity assay. For determining nisoxetine Kd, [^3H] Nisoxetine (Perkin Elmer) (in 1:5 molar ratio) was used in the range of 0.1 nM to 500 nM with 100 µM desipramine added to the control samples. Competition assays were done with 50 nM [^3H] […] The assays were done in 1 mM DDM, 0.2 mM CHS, 20 mM Tris-Cl (pH 8), 300 mM NaCl and 5% glycerol. The background values were subtracted to plot the final curves in GraphPad prism v5.0.1 and the Kd values were calculated. The IC50 values obtained from binding competition assays were used to deduce the Ki values by Cheng–Prusoff’s equation.
# [10] = molecular target: T6, dDATNET (Drosophila melanogaster, UniProt Q7K4Y6, D121G/DEL162-202/F471L/L415A/S426M/V74A); assay: biochemical; assay type: binding
# T6 construct: GFP-8x-His (C); made in house; host or cells: HEK293S GnTI- cells, BacMam baculovirus transduction
# Description: as §4
compound,measurement,setting,value
"CCN(CC)C(=O)[C@]1(c2ccccc2)C[C@@H]1CN [Milnacipran, 1R-2S milnacipran]",IC50,[1],2400 ± 100 nM
same,Ki,[1],1500 ± 100 nM
same,inhibition at 100 µM,"[1]; HEK293S, 0.5 h, read-out: Percent inhibition of DA uptake, dDATfc, Log[compound] M = -4, single replicates",3.99%
same,inhibition at 30 µM,"[1]; HEK293S, 0.5 h, read-out: Percent inhibition of DA uptake, dDATfc, Log[compound] M = -4.52288, single replicates",6.55%
same,inhibition at 10 µM,"[1]; HEK293S, 0.5 h, read-out: Percent inhibition of DA uptake, dDATfc, Log[compound] M = -5, single replicates",22.7%
same,inhibition at 3 µM,"[1]; HEK293S, 0.5 h, read-out: Percent inhibition of DA uptake, dDATfc, Log[compound] M = -5.52288, single replicates",46.8%
same,inhibition at 1 µM,"[1]; HEK293S, 0.5 h, read-out: Percent inhibition of DA uptake, dDATfc, Log[compound] M = -6, single replicates",82.4%
same,Ki,[2],52 ± 9 nM
same,IC50,[3],8900 ± 300 nM
same,inhibition at 100 µM,"[3]; 0.5 h, read-out: Percent inhibition of DA uptake, A117S_A428S, Log[compound] M = -4, single replicates",6.51%
same,inhibition at 30 µM,"[3]; 0.5 h, read-out: Percent inhibition of DA uptake, A117S_A428S, Log[compound] M = -4.52288, single replicates",16.4%
same,inhibition at 10 µM,"[3]; 0.5 h, read-out: Percent inhibition of DA uptake, A117S_A428S, Log[compound] M = -5, single replicates",35.5%
same,inhibition at 3 µM,"[3]; 0.5 h, read-out: Percent inhibition of DA uptake, A117S_A428S, Log[compound] M = -5.52288, single replicates",78.6%
same,inhibition at 0.3 µM,"[3]; 0.5 h, read-out: Percent inhibition of DA uptake, A117S_A428S, Log[compound] M = -6.52288, single replicates",91.2%
same,inhibition at 0.1 µM,"[3]; 0.5 h, read-out: Percent inhibition of DA uptake, A117S_A428S, Log[compound] M = -7, single replicates",87.2%
same,inhibition at 0.03 µM,"[3]; 0.5 h, read-out: Percent inhibition of DA uptake, A117S_A428S, Log[compound] M = -7.52288, single replicates",89.7%
same,IC50,[4],6600 ± 400 nM
same,inhibition at 100 µM,"[4]; 0.5 h, read-out: Percent inhibition of DA uptake, A428S, Log[compound] M = -4, single replicates",7.1%
same,inhibition at 30 µM,"[4]; 0.5 h, read-out: Percent inhibition of DA uptake, A428S, Log[compound] M = -4.52288, single replicates",15.3%
same,inhibition at 10 µM,"[4]; 0.5 h, read-out: Percent inhibition of DA uptake, A428S, Log[compound] M = -5, single replicates",34.4%
same,inhibition at 3 µM,"[4]; 0.5 h, read-out: Percent inhibition of DA uptake, A428S, Log[compound] M = -5.52288, single replicates",73.5%
same,inhibition at 0.1 µM,"[4]; 0.5 h, read-out: Percent inhibition of DA uptake, A428S, Log[compound] M = -7, single replicates",107%
same,inhibition at 0.03 µM,"[4]; 0.5 h, read-out: Percent inhibition of DA uptake, A428S, Log[compound] M = -7.52288, single replicates",100%
same,IC50,[5],2800 ± 200 nM
same,inhibition at 10 µM,"[5]; 0.5 h, read-out: Percent inhibition of DA uptake, A117S, Log[compound] M = -5, single replicates",21.8%
same,inhibition at 2.3 µM,"[5]; 0.5 h, read-out: Percent inhibition of DA uptake, A117S, Log[compound] M = -5.63827, single replicates",62.3%
same,inhibition at 1 µM,"[5]; 0.5 h, read-out: Percent inhibition of DA uptake, A117S, Log[compound] M = -6, single replicates",87.2%
same,inhibition at 0.1 µM,"[5]; 0.5 h, read-out: Percent inhibition of DA uptake, A117S, Log[compound] M = -7, single replicates",99.6%
same,inhibition at 0.023 µM,"[5]; 0.5 h, read-out: Percent inhibition of DA uptake, A117S, Log[compound] M = -7.63827, single replicates",94.7%
same,Ki,[6],> 100000 nM
same,Ki,[7],22 ± 2.58 nM
same,Ki,[8],> 100000 nM
same,remaining activity at 10 µM,"[9]; DATmfc, Log Milnacipran (M) -5, replicate values",21.2%
same,remaining activity at 0.03 µM,[9],98.1%
same,remaining activity at 0.3 µM,[9],86.3%
same,remaining activity at 3 µM,[9],47.5%
same,Ki,"[10]; Binding Ki with dDATNET (vs. Nisoxetine), 50 nM [3H] nisoxetine, Cheng-Prusoff",605 ± 25.3 nM
same,remaining activity at 300 µM,"[10]; read-out: Percent binding, DAT NET, Log Milnacipran (M) -3.52288, replicate values",3.09%
same,remaining activity at 100 µM,"[10]; read-out: Percent binding, DAT NET, Log Milnacipran (M) -4, replicate values",12%
same,remaining activity at 30 µM,"[10]; read-out: Percent binding, DAT NET, Log Milnacipran (M) -4.52288, replicate values",31.5%
same,remaining activity at 10 µM,"[10]; read-out: Percent binding, DAT NET, Log Milnacipran (M) -5, replicate values",60%
same,remaining activity at 3 µM,"[10]; read-out: Percent binding, DAT NET, Log Milnacipran (M) -5.52288, replicate values",78.6%
